Reference: ChEMBL document CHEMBL1201862, “PubChem BioAssay data set” (2004)
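Method: 48-hour compound exposure of cells in 96-well plates, five concentrations, linear interpolation of endpoints. GI50: concentration for 50% inhibition of growth.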 Activity calls are given as the source filed them. Rule as the data show it: active = GI50 up to about 1.1 µM and inactive = higher.

How the values were obtained:
Test in all cases: NCI anticancer screen, dose series, 48 h
SF-268 = test system: SF-268
786-0 = test system: 786-0
SNB-75 = test system: SNB-75
NCI-H226 = test system: NCI-H226
CCRF-CEM = test system: CCRF-CEM
TK-10 = test system: TK-10
Malme-3M = test system: Malme-3M
OVCAR-3 = test system: OVCAR-3
MOLT-4 = test system: MOLT-4
OVCAR-5 = test system: OVCAR-5
UACC-257 = test system: UACC-257
CAKI-1 = test system: CAKI-1
NCI-H460 = test system: NCI-H460
HOP-62 = test system: HOP-62

Measured: GI50

Nc1nc(N)c2ncn(CCOC(c3ccccc3)P(=O)(O)O)c2n1 (stereo not given)
inactive: SF-268 > 100 µM | 786-0 > 100 µM | SNB-75 > 100 µM | NCI-H226 > 100 µM | CCRF-CEM > 100 µM | TK-10 > 100 µM | Malme-3M > 100 µM | OVCAR-3 > 100 µM | MOLT-4 > 100 µM | OVCAR-5 > 100 µM | UACC-257 > 100 µM | CAKI-1 > 100 µM | NCI-H460 > 100 µM

N#CN1CCC=C(c2cc3ccccc3[nH]2)C1
inactive: SF-268 210 µM | 786-0 > 448 µM | HOP-62 > 448 µM | NCI-H226 > 448 µM | CCRF-CEM 188 µM | TK-10 > 448 µM | Malme-3M 442 µM | OVCAR-3 92.5 µM | MOLT-4 230 µM | OVCAR-5 > 448 µM | UACC-257 199 µM | CAKI-1 245 µM | NCI-H460 > 448 µM

CC1(C)C(=O)C(C)(C)C1=NNC(N)=S
inactive: SF-268 > 100 µM | 786-0 > 100 µM | HOP-62 > 100 µM | SNB-75 > 100 µM | NCI-H226 > 100 µM | TK-10 > 100 µM | Malme-3M > 100 µM | OVCAR-3 > 100 µM | MOLT-4 > 100 µM | OVCAR-5 > 100 µM | UACC-257 > 100 µM | CAKI-1 > 100 µM | NCI-H460 > 100 µM

CN(C)CC(C)(C)C(=O)/C=C/c1ccccc1
inactive: 786-0 15.4 µM | HOP-62 28.4 µM | SNB-75 16.1 µM | NCI-H226 13.9 µM | CCRF-CEM 3.39 µM | TK-10 18.2 µM | Malme-3M 11.6 µM | OVCAR-3 17.5 µM | MOLT-4 14.4 µM | UACC-257 12.8 µM | CAKI-1 15.8 µM | NCI-H460 13.9 µM

CCOC(=O)C1C(NC(N)=O)N(Cc2ccccc2)C(=O)N1Cc1ccccc1 (stereo not given)
inactive: SF-268 > 100 µM | 786-0 > 100 µM | HOP-62 > 100 µM | SNB-75 > 100 µM | CCRF-CEM > 100 µM | TK-10 > 100 µM | Malme-3M > 100 µM | OVCAR-3 > 100 µM | MOLT-4 > 100 µM | OVCAR-5 29.3 µM | UACC-257 > 100 µM | CAKI-1 > 100 µM | NCI-H460 > 100 µM

Cc1ccc(S(=O)(=O)C(C#N)c2nc3ccccc3nc2-n2ccnc2)cc1 (stereo not given)
inactive: SF-268 > 100 µM | 786-0 > 100 µM | HOP-62 > 100 µM | SNB-75 > 100 µM | NCI-H226 54.8 µM | CCRF-CEM > 100 µM | TK-10 > 100 µM | Malme-3M > 100 µM | OVCAR-3 > 100 µM | MOLT-4 > 100 µM | OVCAR-5 > 100 µM | UACC-257 > 100 µM | NCI-H460 > 100 µM

COCOCC/C=C/C=O
inactive: SF-268 > 100 µM | 786-0 > 100 µM | SNB-75 > 100 µM | CCRF-CEM > 100 µM | TK-10 > 100 µM | Malme-3M > 100 µM | OVCAR-3 > 100 µM | MOLT-4 > 100 µM | OVCAR-5 > 100 µM | UACC-257 > 100 µM | NCI-H460 > 100 µM

CCOC(=O)C(=O)Nc1c(C)cccc1CC
inactive: SF-268 > 100 µM | 786-0 > 100 µM | HOP-62 > 100 µM | NCI-H226 > 100 µM | CCRF-CEM > 100 µM | TK-10 > 100 µM | Malme-3M > 100 µM | OVCAR-3 > 100 µM | MOLT-4 > 100 µM | OVCAR-5 > 100 µM | UACC-257 > 100 µM | CAKI-1 > 100 µM | NCI-H460 > 100 µM

O=c1c2ccccc2nc2n1-c1ccccc1SC2
inactive: SF-268 60 µM | 786-0 > 100 µM | HOP-62 > 100 µM | SNB-75 17.7 µM | CCRF-CEM 38.8 µM | TK-10 > 100 µM | Malme-3M 37.8 µM | OVCAR-3 64.9 µM | MOLT-4 21.4 µM | OVCAR-5 > 100 µM | UACC-257 39.4 µM | CAKI-1 > 100 µM | NCI-H460 40.2 µM

CCOC(=O)C1=C(Nc2ccc(NC3=C(C(=O)OCC)C(=O)CS3)cc2)SCC1=O
inactive: SF-268 22 µM | 786-0 14.6 µM | HOP-62 34 µM | SNB-75 16.6 µM | NCI-H226 19.8 µM | CCRF-CEM 29.8 µM | TK-10 30.7 µM | Malme-3M 18.6 µM | OVCAR-3 36.7 µM | OVCAR-5 22.7 µM | UACC-257 22.7 µM | CAKI-1 14.8 µM | NCI-H460 30.1 µM

O=[N+]([O-])c1ccc2nc3ccscc-3c2c1
inactive: SF-268 14.7 µM | 786-0 19.5 µM | HOP-62 17.9 µM | NCI-H226 20.9 µM | CCRF-CEM 5 µM | TK-10 20.9 µM | Malme-3M 29 µM | OVCAR-3 7.94 µM | MOLT-4 5.87 µM | OVCAR-5 35.3 µM | UACC-257 14.3 µM | CAKI-1 13 µM | NCI-H460 14.1 µM
